# Laboratory results taken from patent US10195185B2, “3-(1H-imidazo[4,5-C]pyridin-2-yl)-1H-pyrazolo[4,3-B]pyridines and therapeutic uses thereof” (Samumed, LLC, priority 2015, dated 2019).
# Assays:
# Format in all cases: cell-based
# [1] = system: Wnt activity (Wnt-responsive human Sp5 promoter, TCF/LEF binding sites) in SW480 colon carcinoma cells; assay: Wnt activity screening assay: Sp5-Luc luciferase reporter gene in SW480 cells; conditions: for EC50: 10-point dose-response from 10 μM, incubated overnight; for inhibition at 10 µM: given for EC50 of >10 μM, read-out: percent inhibition at 10 μM
# Procedure, shortened: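 Luminescence (BrightGlo) was normalised to DMSO-only wells and fitted with a four-parameter variable-slope model for EC50; beyond 10 μM, % inhibition at 10 μM is given. Stable Sp5-Luc SW480 reporter cells, 4,000/well in 1% FBS, were exposed overnight at 37 °C to compounds, top 10 μM, 1:3 dilutions, 0.1% DMSO.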
# SW480 colon cancer cells = assay: Cell viability assay (CellTiter-Blue), four days; conditions: Homo sapiens, 96 h; for EC50: CellTiter-Blue cell viability; for inhibition at 10 µM: read-out: percent inhibition at 10 μM (given for EC50 of >10 μM)
# Procedure, shortened: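 Four-day viability readout in SW480 cells: compound at 0.0045–10 μM (1:3 series), DMSO controls in eight replicates, CellTiter-Blue fluorescence after ~3 h. Values are regression-derived EC50s, or percent inhibition at 10 μM when EC50 exceeds 10 μM.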
# [2] = system: Primary human fibroblasts derived from IPF patients (LL29 cells) treated with TGF-β1; assay: Inhibition of the fibrotic process: αSMA staining in TGF-β1 treated fibroblasts; conditions: Fibroblast, 96 h, LL29 fibroblasts treated with TGF-β1, 4 days; for inhibition at 10 µM: read-out: percent inhibition in brackets beside EC50 >10 μM
# Procedure, shortened: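 Potency reflects suppression of TGF-β1-driven αSMA expression in IPF patient fibroblasts over 4 days. Values are EC50s from normalized αSMA-positive cell counts, with % inhibition at 10 μM when EC50 exceeded 10 μM.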
EC50 [1] [µM],EC50 (SW480 colon cancer cells) [µM],Compound,inhibition at 10 µM [1] [%],EC50 [2] [µM],inhibition at 10 µM (SW480 colon cancer cells) [%],inhibition at 10 µM [2] [%]
1.06,3.34,"CC(C)(C)C(=O)Nc1cncc(-c2ccc3[nH]nc(-c4nc5c(-c6ccc(Cl)s6)nccc5[nH]4)c3n2)c1 [Compound 1043, N-(5-(3-(4-(5-Chlorothiophen-2-yl)-1H-imidazo[4,5-c]pyridin-2-yl)-1H-pyrazolo[4,3-b]pyridin-5-yl)pyridin-3-yl)pivalamide]",–,> 10,–,22
> 10,> 10,"O=C(Nc1cncc(-c2ccc3[nH]nc(-c4nc5c(-c6ccccn6)nccc5[nH]4)c3n2)c1)c1ccccc1 [Compound 151, N-(5-(3-(4-(Pyridin-2-yl)-1H-imidazo[4,5-c]pyridin-2-yl)-1H-pyrazolo[4,3-b]pyridin-5-yl)pyridin-3-yl)benzamide]",9.9,> 10,1.6,0
3.08,1.63,"CN(C)CC(=O)Nc1cncc(-c2ccc3[nH]nc(-c4nc5c(-c6cccc(F)c6)nccc5[nH]4)c3n2)c1 [Compound 969, 2-(Dimethylamino)-N-(5-(3-(4-(3-fluorophenyl)-1H-imidazo[4,5-c]pyridin-2-yl)-1H-pyrazolo[4,3-b]pyridin-5-yl)pyridin-3-yl)acetamide]",–,1.63,–,–
> 10,> 10,"c1cncc(-c2ccc3[nH]nc(-c4nc5c(-c6cccnc6)nccc5[nH]4)c3n2)c1 [Compound 88, 5-(Pyridin-3-yl)-3-(4-(pyridin-3-yl)-1H-imidazo[4,5-c]pyridin-2-yl)-1H-pyrazolo[4,3-b]pyridine]",34.4,> 10,8.5,22.2
> 10,> 10,"CN(C)CCNc1cc(F)cc(-c2nccc3[nH]c(-c4n[nH]c5ccc(-c6cnccn6)nc45)nc23)c1 [Compound 792, N^1-(3-Fluoro-5-(2-(5-(pyrazin-2-yl)-1H-pyrazolo[4,3-b]pyridin-3-yl)-1H-imidazo[4,5-c]pyridin-4-yl)phenyl)-N^2,N^2-dimethylethane-1,2-diamine]",36.2,> 10,22.1,0
> 10,> 10,"CN1CCN(c2nccc3[nH]c(-c4n[nH]c5ccc(-c6cnccn6)nc45)nc23)CC1 [Compound 648, 3-(4-(4-Methylpiperazin-1-yl)-1H-imidazo[4,5-c]pyridin-2-yl)-5-(pyrazin-2-yl)-1H-pyrazolo[4,3-b]pyridine]",1,6.47,5.4,–
0.384,> 10,"Fc1ccccc1-c1nccc2[nH]c(-c3n[nH]c4ccc(-c5ccccn5)nc34)nc12 [Compound 84, 3-(4-(2-Fluorophenyl)-1H-imidazo[4,5-c]pyridin-2-yl)-5-(pyridin-2-yl)-1H-pyrazolo[4,3-b]pyridine]",–,> 10,0,18.1
3.35,3.59,"CC(C)(C)C(=O)Nc1cncc(-c2ccc3[nH]nc(-c4nc5c(-c6ccc(F)cc6)nccc5[nH]4)c3n2)c1 [Compound 36, N-(5-(3-(4-(4-Fluorophenyl)-1H-imidazo[4,5-c]pyridin-2-yl)-1H-pyrazolo [4,3-b]pyridin-5-yl)pyridin-3-yl)pivalamide]",–,1.28,–,–

# The next lines start with the compound.
Compound,EC50 [1] [µM],EC50 (SW480 colon cancer cells) [µM],inhibition at 10 µM [1] [%],EC50 [2] [µM],inhibition at 10 µM (SW480 colon cancer cells) [%],inhibition at 10 µM [2] [%]
"Cc1ccc(-c2nccc3[nH]c(-c4n[nH]c5ccc(C6=CCNCC6)nc45)nc23)s1 [Compound 730, 3-(4-(5-Methylthiophen-2-yl)-1H-imidazo[4,5-c]pyridin-2-yl)-5-(1,2,3,6-tetrahydropyridin-4-yl)-1H-pyrazolo[4,3-b]pyridine]",> 10,5.26,43.4,6.17,–,–
"O=C(Cc1ccccc1)Nc1cncc(-c2ccc3[nH]nc(-c4nc5cnccc5[nH]4)c3n2)c1 [Compound 262, N-(5-(3-(1H-imidazo[4,5-c]pyridin-2-yl)-1H-pyrazolo[4,3-b]pyridin-5-yl)pyridin-3-yl)-2-phenylacetamide]",> 10,> 10,12.9,> 10,2.2,0
"c1cc2[nH]c(-c3n[nH]c4ccc(-c5cncc(OCCN6CCCC6)c5)nc34)nc2c(-c2ccoc2)n1 [Compound 690, 3-(4-(Furan-3-yl)-1H-imidazo[4,5-c]pyridin-2-yl)-5-(5-(2-(pyrrolidin-1-yl)ethoxy)pyridin-3-yl)-1H-pyrazolo[4,3-b]pyridine]",3.83,4.3,–,> 10,–,42.6
"CC(C)CC(=O)Nc1cncc(-c2ccc3[nH]nc(-c4nc5c(-c6ccc(Cl)s6)nccc5[nH]4)c3n2)c1 [Compound 1037, N-(5-(3-(4-(5-Chlorothiophen-2-yl)-1H-imidazo[4,5-c]pyridin-2-yl)-1H-pyrazolo [4,3-b]pyridin-5-yl)pyridin-3-yl)-3-methylbutanamide]",0.719,1.16,–,0.776,–,–
"O=C(Nc1cncc(-c2ccc3[nH]nc(-c4nc5c(-c6ccncc6)nccc5[nH]4)c3n2)c1)C1CCCCC1 [Compound 135, N-(5-(3-(4-(pyridin-4-yl)-1H-imidazo[4,5-c]pyridin-2-yl)-1H-pyrazolo[4,3-b]pyridin-5-yl)pyridin-3-yl)cyclohexanecarboxamide]",> 10,> 10,2.8,> 10,1,0
"c1cc2[nH]c(-c3n[nH]c4ccc(-c5cn[nH]c5)nc34)nc2cn1 [Compound 651, 3-(1H-Imidazo[4,5-c]pyridin-2-yl)-5-(1H-pyrazol-4-yl)-1H-pyrazolo[4,3-b]pyridine]",> 10,> 10,22.3,> 10,13.5,16.4
"Oc1cncc(-c2ccc3[nH]nc(-c4nc5cnccc5[nH]4)c3n2)c1 [Compound 661, 5-(3-(1H-Imidazo[4,5-c]pyridin-2-yl)-1H-pyrazolo[4,3-b]pyridin-5-yl) pyridin-3-ol]",> 10,> 10,10.7,> 10,13.5,0
"NC1CN(c2cncc(-c3ccc4[nH]nc(-c5nc6c(-c7ccc(Cl)s7)nccc6[nH]5)c4n3)n2)C1 [Compound 1068, 1-(6-(3-(4-(5-Chlorothiophen-2-yl)-1H-imidazo[4,5-c]pyridin-2-yl)-1H-pyrazolo[4,3-b]pyridin-5-yl)pyrazin-2-yl)azetidin-3-amine]",4.2,> 10,–,3.99,48.2,–
"c1cc2[nH]c(-c3n[nH]c4ccc(-c5cncc(OC6CCNCC6)c5)nc34)nc2cn1 [Compound 656, 3-(1H-Imidazo[4,5-c]pyridin-2-yl)-5-(5-(piperidin-4-yloxy)pyridin-3-yl)-1H-pyrazolo[4,3-b]pyridine]",> 10,> 10,15.4,3.33,10.9,–
